Source: EP4813403A1, “USE OF GLP-1R/GIPR DOUBLE-TARGET AGONIST IN PREPARING ANIMAL DRUG” (Hangzhou Zhongmeihuadong Pharmaceutical Co., Ltd., priority 2023, dated 2025)

Experiments:
[1] = target: T1, human GIP Receptor (Homo sapiens, UniProt P48546); experiment: In vitro binding activity to human GIP receptor ([125I]GIP displacement, crude cell membranes); conditions: ratio of the Ki value of the endogenous ligand to the Ki value of the test compound; larger ratio = stronger binding
T1 construct: expressed in transfected cells
T1 sequence (P48546 22-466): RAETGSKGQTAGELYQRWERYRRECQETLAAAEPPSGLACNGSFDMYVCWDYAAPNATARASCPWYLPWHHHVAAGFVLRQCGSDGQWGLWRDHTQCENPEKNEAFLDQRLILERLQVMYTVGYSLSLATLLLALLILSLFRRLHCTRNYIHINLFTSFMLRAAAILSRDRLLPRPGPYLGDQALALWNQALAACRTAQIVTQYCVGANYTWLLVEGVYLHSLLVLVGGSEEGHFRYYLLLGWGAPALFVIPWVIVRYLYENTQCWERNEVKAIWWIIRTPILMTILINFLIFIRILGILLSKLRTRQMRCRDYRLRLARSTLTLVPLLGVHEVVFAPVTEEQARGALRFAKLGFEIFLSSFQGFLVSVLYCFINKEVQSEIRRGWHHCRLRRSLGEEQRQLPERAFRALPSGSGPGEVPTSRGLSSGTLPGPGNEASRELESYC
Protocol: 89 µL of membrane dissolved in binding buffer (50 mM Hepes, pH 7.4, 5 mM MgCl2 , 5 mM EDTA, 0.005% TWEEN, 0.005% HSA) was transferred to a 96-well test plate (5 µg/well). The compound was serially diluted in DMSO, and then, 1 µL of the diluted compound or 100% DMSO was added to the test plate containing the membrane solution. 10 µL of [^125I] […] The test plate was left at room temperature for 90 minutes. The membrane complexes were harvested into a GF/B plate pre-coated with 0.5% PEI by using a Cell Harvester, and washed for 3 times with 500 µL of pre-cooled elution buffer (50 mM Hepes, pH 7.4, 500 mM NaCl) at 4°C. After drying at 37°C for 2 hours, 50 µL of scintillation fluid was added to each well. The plate was read with a MicroBeta2 scintillation counter after sealing and settling for at least 1 hour so as to determine the membrane bound radioligand level.
hGIP and the compound of the present invention were dissolved in DMSO and stored at -80°C. 98 µL of membrane dissolved in binding buffer (50 mM HEPES pH 7.4, 5 mM MgCl2, 1 mM CaCl2, 0.1% BSA, 0.005% Tween-20) was transferred to a 96-well test plate (15 µg/well). The compound was serially diluted in DMSO, and then, 2 µL of the diluted compounds or 100% DMSO was added to the test plate containing the membrane solution. […] The test plate was left at room temperature for 90 minutes. The membrane complexes were harvested into a GF/B plate pre-coated with 0.5% PEI by using a Cell Harvester, and washed for 3 times with 500 µL of pre-cooled elution buffer (50 mM Tris-HCl pH 7.4, 125 mM NaCl) at 4°C. After drying at 37°C for 2 hours, 50 µL of scintillation fluid was added to each well. The plate was read with a MicroBeta2 scintillation counter after sealing and settling for at least 1 hour so as to determine the membrane bound radioligand level.
The IC50 concentration was converted to Ki (Ki was the inhibition constant) using the Cheng-Prusoff equation. Table 1. Receptor Binding Affinity, Ki Ratio

[2] = tested on: db/db mice; experiment: Multiple administration experiment on db/db mice; format: in vivo; conditions: for AUC 4-25 day Glu / D28 FBG(Fasting Blood Glucose) / Liver Weight / Serum ALT / Serum TBIL / Serum TG: db/db mice, s.c. every 3 days for 4 weeks, Mean±SEM, 6 mice
Protocol: "Minimum effective dose" as disclosed in the present invention refers to the minimum administration dose at which the drug effect is produced.
"Efficacy dose" as disclosed in the present invention refers to the administration dose at which the drug effect is produced.
In this study, 7-8 week old male db/db mice were used. The db/db mice were placed in an individual ventilated cage (IVC) facility with a controlled temperature (20-26°C) and humidity (40-70%) and a controlled 12:12 h light-dark cycle. The mice received food and water ad libitum. Blood were sampled at the tail tip, and the base blood glucose was measured by a Roche blood glucose meter. The mice were randomly divided into groups according to the initial blood glucose and initial body weight (n=6/group), and each group had similar body weight and blood glucose.
The mice were subcutaneously administrated every 3 days for 4 weeks. Subcutaneous administration was conducted on days 1, 4, 7, 10, 13, 16, 19, 22 and 25. Random blood glucose was recorded every 3 days throughout the study. On day 28, the fasting blood glucose was measured. Then the blood was collected by orbital blood sampling. After the orbital blood sampling, the animals were sacrificed, and the liver was taken and weighed. After 1 to 2 hours, the collected blood was centrifuged at 3000 rpm for 10 min to separate the serum. Biochemical indicators such as triglyceride (TG), alanine aminotransferase (ALT), and total bilirubin (TBIL) were determined with a biochemical analyzer. The data results were statistically analyzed using GraphPad Prism8, and the statistical differences among the groups were analyzed following T-Test. Significant differences were identified at p<0.05.

Row | SMILES | GIPR Ki ratio [1] | Efficacy Dose ([2]; db/db mice multiple administrations, dose with blood glucose AUC p<0.05 vs. Vehicle) [nmol/kg] | AUC 4-25 day Glu ([2]; 3 nmol/kg) [mmol·days/L] | D28 FBG(Fasting Blood Glucose) ([2]; 3 nmol/kg) [mmol/L] | Liver Weight ([2]; 3 nmol/kg) [g] | Serum ALT ([2]; 3 nmol/kg) [U/L] | Serum TBIL ([2]; 3 nmol/kg) [µmol/L] | Serum TG ([2]; 3 nmol/kg) [mmol/L] | AUC 4-25 day Glu ([2]; 10 nmol/kg) [mmol·days/L] | D28 FBG(Fasting Blood Glucose) ([2]; 10 nmol/kg) [mmol/L] | Liver Weight ([2]; 10 nmol/kg) [g] | Serum ALT ([2]; 10 nmol/kg) [U/L] | Serum TBIL ([2]; 10 nmol/kg) [µmol/L] | Serum TG ([2]; 10 nmol/kg) [mmol/L] | AUC 4-25 day Glu ([2]; 30 nmol/kg) [mmol·days/L] | D28 FBG(Fasting Blood Glucose) ([2]; 30 nmol/kg) [mmol/L] | Liver Weight ([2]; 30 nmol/kg) [g] | Serum ALT ([2]; 30 nmol/kg) [U/L] | Serum TBIL ([2]; 30 nmol/kg) [µmol/L] | Serum TG ([2]; 30 nmol/kg) [mmol/L]
1 | CC[C@H](C)[C@H](NC(=O)C(C)(C)NC(=O)[C@H](Cc1ccc(O)cc1)NC(=O)[C@H](CC(=O)O)NC(=O)[C@H](CO)NC(=O)[C@@H](NC(=O)C(C)(Cc1ccccc1)NC(=O)[C@@H](NC(=O)CNC(=O)[C@H](CCC(=O)O)NC(=O)C(C)(C)NC(=O)[C@@H](N)Cc1ccc(O)cc1)[C@@H](C)O)[C@@H](C)O)C(=O)NC(C)(C)C(=O)N[C@@H](CC(C)C)C(=O)N[C@@H](CC(=O)O)C(=O)N[C@@H](CCCCN)C(=O)N[C@@H](CCC(N)=O)C(=O)N[C@@H](C)C(=O)N[C@@H](CCC(N)=O)C(=O)N[C@@H](C)C(=O)N[C@@H](CCC(=O)O)C(=O)N[C@@H](Cc1ccccc1)C(=O)N[C@H](C(=O)N[C@@H](CCCCNC(=O)COCCOCCNC(=O)COCCOCCNC(=O)CC[C@H](NC(=O)CCCCCCCCCCCCCCCCCCCCC(=O)O)C(=O)O)C(=O)N[C@@H](Cc1c[nH]c2ccccc12)C(=O)N[C@@H](CC(C)C)C(=O)N[C@@H](CC(C)C)C(=O)N[C@@H](CCCCN)C(=O)NCC(=O)NCC(=O)N1CCC[C@H]1C(=O)N[C@@H](CO)C(=O)N[C@@H](CO)C(=O)NCC(=O)N[C@@H](C)C(=O)N1CCC[C@H]1C(=O)N1CCC[C@H]1C(=O)N1CCC[C@H]1C(=O)N[C@@H](CO)C(=O)N[C@@H](CCCCN)C(N)=O)C(C)C (stereo partly drawn) [Compound P014] | 0.08 | 3 | 294 ± 40.43 | 10.22 ± 1.58 | 2.26 ± 0.18 | 111.24±13.23 | 0.58 ± 0.11 | 1.39 ± 0.07 | 214.4 ± 33.73 | 10.72 ± 1.75 | 2.1 ± 0.14 | 89.9±8.66 | 0.58 ± 0.15 | 1.29 ± 0.03 | 190.62 ± 26.47 | 13.38 ± 3.38 | 1.89 ± 0.31 | 106.47±14.3 | 0.36 ± 0.15 | 1.14 ± 0.18
2 | CC[C@H](C)[C@H](NC(=O)C(C)(C)NC(=O)[C@H](Cc1ccc(O)cc1)NC(=O)[C@H](CC(=O)O)NC(=O)[C@H](CO)NC(=O)[C@@H](NC(=O)C(C)(Cc1ccccc1)NC(=O)[C@@H](NC(=O)CNC(=O)[C@H](CCC(=O)O)NC(=O)C(C)(C)NC(=O)[C@@H](N)Cc1ccc(O)cc1)[C@@H](C)O)[C@@H](C)O)C(=O)NC(C)(C)C(=O)N[C@@H](CC(C)C)C(=O)N[C@@H](CC(=O)O)C(=O)N[C@@H](CCCCN)C(=O)N[C@@H](CCC(N)=O)C(=O)N[C@@H](C)C(=O)N[C@@H](CCC(N)=O)C(=O)N[C@@H](C)C(=O)N[C@@H](CCC(=O)O)C(=O)N[C@@H](Cc1ccccc1)C(=O)N[C@H](C(=O)N[C@@H](CCCCN)C(=O)N[C@@H](Cc1c[nH]c2ccccc12)C(=O)N[C@@H](CC(C)C)C(=O)N[C@@H](CC(C)C)C(=O)N[C@@H](CCCCNC(=O)COCCOCCNC(=O)COCCOCCNC(=O)CC[C@H](NC(=O)CCCCCCCCCCCCCCCCCCCCC(=O)O)C(=O)O)C(=O)NCC(=O)NCC(=O)N1CCC[C@H]1C(=O)N[C@@H](CO)C(=O)N[C@@H](CO)C(=O)NCC(=O)N[C@@H](C)C(=O)N1CCC[C@H]1C(=O)N1CCC[C@H]1C(=O)N1CCC[C@H]1C(=O)N[C@@H](CO)C(=O)N[C@@H](CCCCN)C(N)=O)C(C)C (stereo partly drawn) [Compound P017] | 0.04 |  | 303.78 ± 33.24 | 11.68 ± 1.7 | 2.14 ± 0.08 | 105.16±7.1 | 0.88 ± 0.26 | 1.58 ± 0.17 | 249.65 ± 47.65 | 11.95 ± 2.51 | 2.11 ± 0.09 | 141.65±12.72 | 1.59 ± 0.07 | 1.19 ± 0.05 | 294.96 ± 11.96 | 10.08 ± 0.79 | 2.35 ± 0.09 | 176.48±51.6 | 1.11 ± 0.1 | 1.09 ± 0.06
